The target of this assay is T1, Glutamate receptor ionotropic, kainate 4 (Homo sapiens, UniProt Q16099).
T1 sequence (Q16099 whole entry): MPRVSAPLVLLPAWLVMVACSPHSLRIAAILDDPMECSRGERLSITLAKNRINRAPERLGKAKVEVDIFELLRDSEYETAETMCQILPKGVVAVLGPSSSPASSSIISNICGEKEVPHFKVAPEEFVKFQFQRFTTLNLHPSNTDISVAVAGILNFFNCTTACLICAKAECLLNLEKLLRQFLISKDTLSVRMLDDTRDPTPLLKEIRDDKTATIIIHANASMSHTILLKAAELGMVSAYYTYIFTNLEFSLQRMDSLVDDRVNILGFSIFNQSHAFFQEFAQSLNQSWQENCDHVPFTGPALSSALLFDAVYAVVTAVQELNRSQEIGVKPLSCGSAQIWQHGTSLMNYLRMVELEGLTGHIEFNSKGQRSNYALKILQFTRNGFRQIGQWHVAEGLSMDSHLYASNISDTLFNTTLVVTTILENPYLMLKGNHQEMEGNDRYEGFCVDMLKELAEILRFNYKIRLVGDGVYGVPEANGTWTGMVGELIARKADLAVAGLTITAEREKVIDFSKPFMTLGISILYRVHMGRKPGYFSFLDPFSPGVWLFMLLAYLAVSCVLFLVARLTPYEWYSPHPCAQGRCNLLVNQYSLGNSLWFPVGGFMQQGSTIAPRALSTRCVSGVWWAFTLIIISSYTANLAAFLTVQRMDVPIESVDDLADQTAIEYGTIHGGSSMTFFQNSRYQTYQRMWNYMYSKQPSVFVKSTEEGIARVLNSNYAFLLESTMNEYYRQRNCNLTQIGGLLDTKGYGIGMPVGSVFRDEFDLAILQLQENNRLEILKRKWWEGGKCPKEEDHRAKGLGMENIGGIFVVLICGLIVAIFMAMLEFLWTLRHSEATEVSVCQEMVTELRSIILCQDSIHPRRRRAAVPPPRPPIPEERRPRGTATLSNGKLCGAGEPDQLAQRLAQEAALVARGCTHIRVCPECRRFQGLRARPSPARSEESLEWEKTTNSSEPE

A value given as a limit tells only on which side of the number the result lay.

A word on the Ki: it is a measure of affinity in units of concentration, obtained from inhibition or displacement. A lower Ki goes with higher affinity. Molecule `C/C(=C\C=C\[C@@H](C)C(=O)O)[C@H]1CN[C@H](C(=O)O)[C@H]1CC(=O)O` returned a Ki of 10.5 nM.
The same measure for `N[C@@H](Cn1oc(=O)[nH]c1=O)C(=O)O` [2-amino-3-(3,5-dioxo[1,2,4]oxadiazolidin-2-yl)propionic acid]: 6.43 nM; for `N#Cc1cc2nc(O)c(O)nc2cc1[N+](=O)[O-]` [7-Cyano-3-hydroxy-6-nitro-quinoxalin-2-ol anion]: > 10000 nM.
Consider `Cc1onc(O)c1CC(N)C(=O)O` (stereo not drawn) [(RS)-2-amino-3-(3-hydroxy-5-methylisoxazol-4-yl)-propionicacid], for which the Ki came out at 1970 nM.
With `C=C(C)[C@H]1CN[C@H](C(=O)O)[C@H]1CC(=O)O` [Digensaeure], the Ki was 2.29 nM.
On to `CN[C@H](CC(=O)O)C(=O)O` [NMDA], for which the Ki was > 10000 nM.
In turn, `O=C1N=c2cc([N+](=O)[O-])c([N+](=O)[O-])cc2=NC1=O` [NSC_3140] had a Ki of 8490 nM.
The molecule `CC(C)[C@H]1CN[C@H](C(=O)O)[C@H]1CC(=O)O` [dihydrokainic acid] registered a Ki of 3840 nM.
The figure for `NC(CCC(=O)O)C(=O)O` (centres undefined) [glutamic acid dianion] is 18.3 nM.
